Reference: US6500405B1, “Use of certain amides as probes for detection of antitubulin activity and resistance monitoring” (Dow AgroSciences LLC, priority 1996, dated 2002)
One block for each compound: values may come before it.

Tests used:
[1] = tested on: tubulin in tobacco suspension-cultured cells; test: Whole cell binding assay, tritiated compound 1 as probe, tobacco suspension-cultured cells; settings: for Binding of radioligand (% control): 2 hours preincubation, 20 minutes with tritiated compound 1; for Effect on binding of the radioligand (in words): tobacco cells, tritiated compound 1
Method: The effects of various antitubulin compounds from different chemical classes on binding of compound 1 to tubulin in tobacco suspension-cultured cells is shown in this example.
Aliquots (2 ml) of suspension-cultured tobacco cells grown as described in Example 2 were added to 25 ml capacity glass vials. Each vial then received 5 μl of DMSO (control) or 5 μl of an antitubulin compound dissolved in DMSO. Vials were incubated with shaking at 27° C. for 2 hours, then 5 μl of a 100 μM solution of tritium-labeled compound 1 in DMSO was added. Vials were incubated with shaking at 27° C. for 20 minutes, then binding of the radioligand was stopped by adding 5 μl of unlabeled 40 mM compound 1. The samples were incubated with shaking at 27° C. for a further 20 minutes, then transferred to 15 ml capacity polypropylene centrifuge tubes in an ice bath. Each vial was rinsed with 2 ml ice-cold growth medium (described in example 2) and the rinse solution was then added to the rest of the sample. Following centrifugation at 4° C. for 3 minutes at 2,500 rpm the supernatant was discarded and the pelleted cells were resuspended in 4 ml of ice-cold 10% trichloroacetic acid. Samples were kept for 1 hour in an ice bath, centrifuged again, and the cells resuspended in 4 ml of ice-cold ethanol. After incubation for a further 1 hour in an ice-bath the cells were collected by filtration on glass fiber filters and washed twice with 10 ml of ice-cold ethanol. The filters with washed cells were transferred to scintillation vials, 10 ml of Hydrofluor™ scintillation fluid (National Diagnostics, Manville, N.J.) was added to each, and the samples were counted in a scintillation counter to determine the amount of bound radioactivity. The effects of different antitubulin compounds on binding of the radioligand are presented in Table 7 with the amounts of radioligand bound in the presence of each antitubulin compound expressed as a percentage of the amount of radioligand bound in the DMSO control.

[2] = biological target: tubulin in Phytophthora capsici (Phytophthora capsici, UniProt A4ZYP2); test: Binding assay, tritiated compound 1 as probe, germinated zoospore cysts of Phytophthora capsici; settings: 1 hour preincubation; for IC50: 20 minutes with tritiated compound 1, read-out: IC50 (concentration required to inhibit binding of the radioligand by 50%) (converted)
Sequence of tubulin in Phytophthora capsici (A4ZYP2 entry or part of it): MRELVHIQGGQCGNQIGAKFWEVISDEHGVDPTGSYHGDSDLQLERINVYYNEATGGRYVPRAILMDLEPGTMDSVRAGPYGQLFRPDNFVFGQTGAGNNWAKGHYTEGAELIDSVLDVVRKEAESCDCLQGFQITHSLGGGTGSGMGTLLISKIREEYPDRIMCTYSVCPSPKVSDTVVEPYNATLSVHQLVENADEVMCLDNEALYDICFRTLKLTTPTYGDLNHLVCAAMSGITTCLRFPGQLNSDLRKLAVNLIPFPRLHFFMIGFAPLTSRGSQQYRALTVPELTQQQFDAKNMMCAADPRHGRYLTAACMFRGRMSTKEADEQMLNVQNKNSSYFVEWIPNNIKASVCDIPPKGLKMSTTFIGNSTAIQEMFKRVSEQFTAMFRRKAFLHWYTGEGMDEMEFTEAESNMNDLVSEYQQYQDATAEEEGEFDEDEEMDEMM
Sequence of tubulin in Phytophthora capsici (A4ZYP4 entry or part of it, further chain): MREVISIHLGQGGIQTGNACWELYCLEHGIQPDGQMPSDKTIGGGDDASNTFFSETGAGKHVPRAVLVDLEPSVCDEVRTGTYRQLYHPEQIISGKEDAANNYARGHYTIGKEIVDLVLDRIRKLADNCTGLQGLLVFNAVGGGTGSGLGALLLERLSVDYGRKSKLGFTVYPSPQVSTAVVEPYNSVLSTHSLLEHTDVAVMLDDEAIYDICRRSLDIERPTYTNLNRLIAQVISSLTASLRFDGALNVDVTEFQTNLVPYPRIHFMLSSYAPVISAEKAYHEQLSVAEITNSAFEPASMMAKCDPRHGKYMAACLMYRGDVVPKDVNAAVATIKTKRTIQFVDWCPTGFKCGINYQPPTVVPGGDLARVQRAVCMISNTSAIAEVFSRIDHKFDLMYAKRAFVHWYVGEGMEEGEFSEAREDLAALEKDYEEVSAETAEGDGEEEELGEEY
Method: The effect of zarilamide and compounds 7, 8, 16, 19, 23 and 27 described in Table 1 on binding of compound 1 to tubulin in Phytophthora capsici is shown in this example.
Zoospores of P. capsici were prepared as follows. Petri plates, 9 cm in diameter, containing 15 ml of V-8 agar were inoculated with a mycelial plug of P. capsici and incubated for 4 days in the dark at 25° C., then placed under continuous fluorescent light for 3 days to induce sporulation. To induce zoospore release, 15 ml of sterile water was added to each plate. The plates were incubated at room temperature for 10 minutes, followed by 20 minutes at 4° C., and finally returned to room temperature for 15 minutes. The zoospore-containing fluid was then removed from each plate and adjusted to a density of 5×10^5 zoospores per ml. Assay tubes containing germinated zoospores cysts were prepared by adding 100 μl of zoospore suspension to 400 μl of asparagine-sucrose medium in 16×1.25 cm polypropylene tubes, which were then loosely capped and incubated on a gyrotary shaker at 120 rpm for 24 hours at 26° C.
Tubes containing germinated zoospore cysts then received 2.5 μl of DMSO (control) or 2.5 μl of test compound dissolved in DMSO. Each compound was tested at a series of concentrations. Tubes were incubated with shaking at 26° C. for 1 hour, then 2.5 μl of a 40 μM solution of tritium-labeled compound 1 in DMSO were added. Vials were incubated with shaking at 26° C. for 20 minutes, then binding of the radioligand was stopped by adding 1.5 ml of ice-cold unlabeled 133 μM compound 1, and transferring the tubes to an ice bath. Following centrifugation at 3,400 rpm for 3 minutes, the supernatant was discarded and the pelleted cells were resuspended in 2 ml of ice-cold 10% trichloroacetic acid. Samples were kept for 1 hour in an ice bath, centrifuged again, and the cells resuspended in 2 ml of ice-cold ethanol. After incubation for a further 1 hour in an ice-bath, an additional 4 ml of ice-cold ethanol was added to each tube and the cells were collected by filtration on glass fiber filters in a Brandell cell harvester (Brandel Biomedical Research and Development Laboratories, Inc., Gaithersburg, Md.), and washed twice with 4 ml of ice-cold ethanol. The filters with washed cells were transferred to scintillation vials and 0.1 ml of water was added followed by 1 ml of Protosol™ (Dupont NEN Research Products). The vials were incubated at 60° C. for 30 minutes and cooled to room temperature. Ten ml of Econofluor™ scintillation fluid (Dupont NEN Research Products) was added, and the samples were counted in a scintillation counter to determine the amount of bound radioactivity. IC50 values for each test compound (defined as the concentration required to inhibit binding of the radioligand by 50% as compared to controls lacking the test compound) were determined from dose-response curves and are presented in Table 9.

[3] = tested on: tubulin in Phytophthora capsici mycelium; test: Whole cell binding assay, tritiated compound 1 as probe, Phytophthora capsici mycelium; settings: 1 hour preincubation, 20 min with tritiated compound 1
Method: The effect of paclitaxel on binding of compound 1 to tubulin in Phytophthora capsici is shown in this example.
A liquid mycelial shake culture of P. capsici in asparagine-sucrose medium was used to prepare a homogeneous suspension of fungal material for binding assays. Asparagine-sucrose medium (100 ml) was inoculated with mycelial plugs cut from cultures grown on V-8 agar, and incubated at 26° C. on a gyrotary shaker for 48 hours. The culture was homogenized in a blender, and 30 ml of the homogenate subcultured into 100 ml of fresh medium, which was then incubated at 26° C. on a gyrotary shaker for 17 hours. The resulting mycelium was recovered from the medium by centrifugation and resuspended in 1170 ml of fresh medium. Aliquots (2 ml) of this suspension were added to 25 ml capacity glass vials. Each vial then received 5 μl of DMSO (control) or 5 μl of paclitaxel dissolved in DMSO. Vials were incubated with shaking at 26° C. for 1 hour, then 5 μl of a 100 μM solution of tritium-labeled compound 1 in DMSO was added. Vials were incubated with shaking at 26° C. for 20 min, then binding of the radioligand was stopped by adding 5 μl of unlabeled 40 mM compound 1. The samples were incubated with shaking at 27° C. for a further 20 minutes, then transferred to 15 ml capacity centrifuge tubes in an ice bath. Each vial was rinsed with 2 ml ice-cold medium which was then added to the rest of the sample. Following centrifugation at 4° C. for 5 minutes at 3,400 rpm, the supernatant was discarded and the pelleted cells were resuspended in 4 ml of ice-cold 10% trichloroacetic acid. Samples were kept for 1 hour in an ice bath, centrifuged again, and the cells resuspended in 4 ml of ice-cold ethanol. After incubation for a further 2 hours in an ice-bath the cells were collected by filtration on glass fiber filters and washed twice with 10 ml of ice-cold ethanol. The filters with washed cells were transferred to scintillation vials, 10 ml of Hydrofluor™ scintillation fluid was added, and the samples were counted in a scintillation counter to determine the amount of bound radioactivity. The effect of paclitaxel at various concentrations on binding of the radioligand are presented in Table 8, with the amounts of radioligand bound in the presence of paclitaxel expressed as a percentage of the amount of radioligand bound in the DMSO control.

[4] = tested on: tubulin in colon cancer cell line HCT-116; test: Whole cell binding assay, tritiated S-enantiomer of compound 2 as probe, colon cancer cell line HCT-116; settings: for Binding of radioligand (% control): HCT-116, 1 hour preincubation, 1 hour with radioligand
Method: Effect of antitubulin compounds on binding of the tritiated S-enantiomer of compound 2 to tubulin in a whole cell binding assay using the colon cancer cell line HCT-116 is shown by this example.
The colon cancer cell line HCT-116 (obtained from the American Type Culture Collection) was cultured in 75 cm^2 flasks containing McCoy's 5a Modified Medium with 10% heat-inactivated fetal bovine serum, 50 U/ml of penicillin G and 50 U/ml of streptomycin sulfate. A cell suspension was prepared by trypsinization of the culture, and adjusted to a density of 10^6 cells/ml by dilution into incomplete medium (medium lacking serum, penicillin G and streptomycin). Aliquots (150 μl) of cell suspension were added to wells of 96-well glass fiber filter plates (Millipore Multiscreen® plates, 1 μm glass fiber, Type B). Wells then received 30 μl of a solution of the test antitubulin compound in incomplete medium/DMSO mixture (8.5:1, v/v) or 30 μl of the incomplete medium/DMSO mixture alone (control). After mixing, the plates were incubated at 37° C. for 1 hour, then 25 μl of 0.8 μM tritium-labeled S-enantiomer of compound 2 was added to each well. After mixing, the plates were incubated at 37° C. for 1 hour, then binding of the radioligand to tubulin was stopped by adding 50 μl of 100 μM unlabeled compound 2. The fluid was removed from the plate by vacuum filtration through the glass fiber, then 100 μl of ice-cold 10% trichloroacetic acid was added to each well. The plates were incubated for 1 h at 4° C., then the fluid was removed by filtration. Ice-cold ethanol (250 μl) was added to each well, the plates incubated for 1 h at 4° C., then the ethanol was removed by filtration. Wells were washed 4 more times with 250 μl of ice-cold ethanol. After drying the plates at 37° C. for 20 min, the glass fiber filters were punched out of the wells into scintillation vials, 5 ml of scintillation fluid was added to each vial, and the samples were counted in a scintillation counter to determine the amount of bound radioactivity. The effects of different antitubulin compounds on binding of the radioligand are presented in Table 11 with the amounts of radioligand bound in the presence of each antitubulin compound expressed as a percentage of the amount of radioligand bound in the control.

Compound: CC(C)OC(=O)Nc1cccc(Cl)c1 [Chlorpropham, chlorpropham]
Binding of radioligand (% control) ([1]; antitubulin compound 100 μM): 29.1 % control | Effect on binding of the radioligand (in words) [1]: reduced binding of the radioligand

Compound: CC(=O)O[C@H]1C(=O)[C@@]2(C)[C@H]([C@H](OC(=O)c3ccccc3)[C@]3(O)C[C@H](OC(=O)[C@H](O)[C@@H](NC(=O)c4ccccc4)c4ccccc4)C(C)=C1C3(C)C)[C@]1(OC(C)=O)CO[C@@H]1C[C@@H]2O [Paclitaxel, paclitaxel]
Binding of radioligand (% control) ([1]; antitubulin compound 25 μM): 50.3 % control | Effect on binding of the radioligand (in words) [1]: reduced binding of the radioligand | Binding of radioligand (% control) ([3]; 0.004 μM): 84.5 % control | Binding of radioligand (% control) ([3]; 0.02 μM): 54.6 % control | Binding of radioligand (% control) ([3]; 0.1 μM): 34.6 % control | Binding of radioligand (% control) ([3]; 0.5 μM): 23.6 % control | Binding of radioligand (% control) ([4]; 0.1 μM): 37 % control | Binding of radioligand (% control) ([4]; 1 μM): 19 % control | Binding of radioligand (% control) ([4]; 10 μM): 6 % control | Binding of radioligand (% control) ([4]; 100 μM): 4 % control | Effect on binding of the radioligand (in words) ([4]; HCT-116, tritiated S-enantiomer of compound 2): reduced binding of the radioligand

Compound: C#CC(C)(C)NC(=O)c1cc(Cl)cc(Cl)c1 [Pronamide, pronamide]
Binding of radioligand (% control) ([1]; antitubulin compound 100 μM): 68.7 % control | Effect on binding of the radioligand (in words) [1]: reduced binding of the radioligand

Compound: CCCN(CCC)c1c([N+](=O)[O-])cc(C(F)(F)F)cc1[N+](=O)[O-] [Trifluralin, trifluralin]
Binding of radioligand (% control) ([1]; antitubulin compound 100 μM): 129.0 % control | Effect on binding of the radioligand (in words) [1]: increased binding of the radioligand

Compound: CCOC(C#N)NC(=O)c1ccc(Cl)cc1 (stereo not drawn) [Zarilamide, zarilamide]
IC50 (concentration required to inhibit binding of the radioligand by 50%) ([2]; 20 minutes with tritiated compound 1): 7.02 µg/mL

Next, values leading:

IC50 [2]: 2840 nM
Compound: CCC(C)(NC(=O)c1cc(Cl)cc(C=NOC)c1)C(=O)CCl (stereo not drawn) [Compound 7]

IC50 [2]: 721 nM
Compound: CCC(C)(NC(=O)c1cc(C)cc(Br)c1)C(=O)CCl (stereo not drawn) [Compound 8]

IC50 [2]: 3760 nM
Compound: CCC(C)(NC(=O)c1cccc(C=NOC)c1)C(=O)CCl (stereo not drawn) [Compound 16]

IC50 [2]: 810 nM
Compound: CC(C)(NC(=O)c1cc(Cl)cc(Cl)c1)C(=O)CCl [Compound 19]

IC50 [2]: 168 nM
Compound: CCC(C)(NC(=O)c1cc(Cl)c(Cl)c(Cl)c1)C(=O)CCl (stereo not drawn) [Compound 23]

IC50 [2]: 5440 nM
Compound: CC(C)C(C)(NC(=O)c1cc(Cl)cc(Cl)c1)C(=O)CCl (stereo not drawn) [Compound 27]
